Consider 1 compound from patent US11040949B2, “Compounds affecting pigment production and methods for treatment of bacterial diseases” (Versitech Limited, priority 2017, dated 2021).

A short description of series [1]: Solubility in simulated gastric and intestinal fluids. It is filed as physicochemical. From the text:
The following table (Table 4) illustrates the solubility of two different compounds, NP16-XL-016 (hereinafter as “IM032”) and NP16-XL-061 (hereinafter as “IM032-C”), in two solutions with different pH values simulating the pH of gastric juice and human intestinal fluid using HCl and phosphate buffer respectively.

Series [2] can be described thus: Solubility in commonly used solvents for oral administration. It is filed as physicochemical.
The subject of series [3] is 10 different Staphylococcus aureus (S. aureus) strains. As to the kind of experiment: IM032 staphyloxanthin production inhibition, all tested strains. In kind it is cell-based. On the procedure:
This study aimed to evaluate IM032 for its in vitro efficacy to inhibit the production of staphyloxanthin in different strains of S. aureus.
Compound IM032 was evaluated for its in vitro efficacy to inhibit staphyloxanthin production in 10 different Staphylococcus aureus (S. aureus) strains, SH1000, HG003, ATCC29213, ATCC700698, COL, JE2, LAC, USA300-3, Newman and ST239III.
The negative control was dimethyl sulfoxide (DMSO) which was used to prepare stock solutions and dilutions; positive control in this test was S. aureus strain FPR3757 treated with IM032.
The test item was dissolved at 44.9 mg/mL in DMSO at 37° C., aliquoted into several tubes, and stored at −20° C. until use. On the day of testing, a stock solution was serially diluted to testing concentrations with DMSO. […]
Each test item solution (6 μL) was combined with 0.6 mL of S. aureus culture in brain heart infusion broth (CFU per well=1×10^7). […] After centrifugation, 100 μL of supernatant was transferred to a 96-well cell culture plate and OD450 was measured. The relative pigment production at each tested concentration was calculated as follows: […]
The IC50 for each test was determined based on the calculated inhibition ratio from above with Prism 6.0 by employing a non-linear regression (four parameters) fitting method with assigned bottom and top at 0.05 and 0.95 respectively. […]

Values after ≈ are worked out from the molar mass of the structure shown. Bounds are passed on as bounds.

The term solubility denotes the dissolved amount per volume that the medium holds. One may read the IC50 as the midpoint of a concentration-inhibition curve. As to `O=C(/C=C/c1ccccc1Br)Nc1ccc(S(=O)(=O)N2CCCCC2)cc1` [NP16-XL-016, 3-(6-bromophenyl)-N-[4-(1-piperidine-1-sulfonyl)phenyl]-acrylamide], the solubility in series [1] (0.1N HCl + 0.1% Tween 80 (simulated gastric fluid), pH 2, aqueous with cosolvent or surfactant or cyclodextrin, read-out: Solubility in pH 2 (0.1N HCl + 0.1% Tween 80)-simulating human stomach) is 0.00203 mg/mL; in series [1] (pH 7.4, aqueous with cosolvent or surfactant or cyclodextrin, read-out: Solubility in pH 7.4 (KH2PO4 + 0.1% Tween 80)-simulating human intestine), 0.00174 mg/mL; in series [2] (1:1 Labrasol ALF/PEG300, organic solvent or mixture) it was 16.1 mg/mL (≈ 35.8 mM); in series [2] (1:1 Labrasol ALF/PEG400, organic solvent or mixture) it was more than 15 mg/mL; in series [2] (Labrasol ALF, oil or lipid), 11.8 mg/mL (≈ 26.3 mM); in series [2] (PEG300, organic solvent or mixture), more than 20 mg/mL. Also, in series [2] (PEG400, organic solvent or mixture), the solubility is more than 20 mg/mL. Further, in series [1] (two biorelevant media, pH 2 and pH 7.4), the “solubility higher than that of IM032-Cl” value is on record as more than 20 ×. In series [3] (Staphylococcus aureus, all 10 tested strains, read-out: IC50 of staphyloxanthin production inhibition, range over tested strains), the IC50 was 1.2 to 70 nM. For the same compound, the “bactericidal effect (reduction in optical density)” value in series [3] (any concentration of IM032, up to 4,000 nM) was “A clear bactericidal effect as evidenced by a reduction in optical density was not observed”.
